# From US10239849B2 (Merck Sharp & Dohme Corp., priority 2015, dated 2019)
# Columns and labels:
# [1] = target: T1, glutathione-S-transferase (GST) tagged LXRbeta LBD (ligand binding domain) (Homo sapiens, UniProt P55055); assay: LanthaScreen TR-FRET Liver X Receptor Coactivator Assay, LXR beta-LBD; format: biochemical; conditions: for Emax: efficacy in relation to reference dual agonist T1317, read-out: LXR beta activity at max dose (%) (Emax); for EC50: potency (Inflection Point) of co-activator recruitment, TR-FRET, read-out: LXR beta IP
# T1 construct: purchased Invitrogen pv4658.pps
# T1 sequence (P55055 222-460 limits assumed): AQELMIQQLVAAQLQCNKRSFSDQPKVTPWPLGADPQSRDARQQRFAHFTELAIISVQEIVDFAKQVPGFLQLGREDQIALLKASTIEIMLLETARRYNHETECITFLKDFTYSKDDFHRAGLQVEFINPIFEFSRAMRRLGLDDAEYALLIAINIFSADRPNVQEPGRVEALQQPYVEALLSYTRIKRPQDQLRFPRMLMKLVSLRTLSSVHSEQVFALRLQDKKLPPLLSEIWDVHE
# Experimental: (§1) While running the LanthaScreen™ TR-FRET Liver X Receptor Coactivator Assay, LXR alpha-LBD or LXR beta-LBD was added to ligand test compounds followed by addition of a mixture of a fluorescein-labelled coactivator peptide and terbium-conjugated anti-GST antibody. After an incubation period at room temperature, TR-FRET (time-resolved fluorescence resonance energy transfer) was measured using a filter-based instrument capable of TR-FRET, e.g. PerkinElmer Envision.
# [2] = target: T2, glutathione-S-transferase (GST) tagged LXRalpha LBD (ligand binding domain) (Homo sapiens, UniProt Q13133); assay: LanthaScreen TR-FRET Liver X Receptor Coactivator Assay, LXR alpha-LBD; format: biochemical; conditions: for Emax: efficacy in relation to reference dual agonist T1317, read-out: LXR alpha activity at max dose (%) (Emax); for EC50: read-out: LXR alpha IP
# T2 construct: purchased Invitrogen pv4655
# T2 sequence (Q13133 209-447 limits assumed): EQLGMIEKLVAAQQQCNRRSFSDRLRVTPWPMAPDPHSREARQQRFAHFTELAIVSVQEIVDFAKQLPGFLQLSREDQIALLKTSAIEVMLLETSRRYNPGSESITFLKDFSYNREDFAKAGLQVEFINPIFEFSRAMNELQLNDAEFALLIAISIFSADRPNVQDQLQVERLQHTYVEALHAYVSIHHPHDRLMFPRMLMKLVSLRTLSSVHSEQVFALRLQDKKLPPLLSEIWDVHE
# Experimental: as §1
# [3] = potency (Inflection Point) of co-activator recruitment, TR-FRET
SMILES,Emax [1] [%],EC50 [1] [nM],Emax [2] [%],"EC50 [2, 3] [nM]","LXR alpha IP (nM) [2, 3]"
"CN(C)C(=O)c1ccc(-c2cc(Cl)c(N3CCN(S(=O)(=O)c4c(Cl)cccc4Cl)CC3)c(Cl)c2)cc1Cl [Example 4-10, 3,3′,5′-trichloro-4′-{4-[(2,6-dichlorophenyl)sulfonyl]piperazin-1-yl}-N,N-dimethylbiphenyl-4-carboxamide]",77,94,30,1260,–
"CN(C)C(=O)c1ccc(-c2cnc(N3CCN(C(=O)OCC4(C)CC4)CC3)c(C#N)c2)cc1Cl [Example 3-12, (1-methylcyclopropyl)methyl 4-{5-[3-chloro-4-(dimethylcarbamoyl)phenyl]-3-cyanopyridin-2-yl}piperazine-1-carboxylate]",55,39,30,4330,–
"CN(C)C(=O)c1ccc(-c2cnc(N3CCN(S(=O)(=O)c4ccccc4OC(F)(F)F)CC3)c(C#N)c2)cc1Cl [Example 1-14, 2-chloro-4-[5-cyano-6-(4-{[2-(trifluoromethoxy)phenyl]sulfonyl}piperazin-1-yl)pyridin-3-yl]-N,N-dimethylbenzamide]",99,20,37,1050,–
"CN(C)C(=O)c1ccc(-c2cnc(N3CCN(S(=O)(=O)c4ccccc4)CC3)c(C#N)c2)cc1Cl [Example 1-16, 2-chloro-4-{5-cyano-6-[4-(phenylsulfonyl)piperazin-1-yl]pyridin-3-yl}-N,N-dimethylbenzamide]",69,144,63,50500,–
"COc1ccc(COC(=O)N2CCN(c3ncc(-c4ccc(C(=O)N(C)C)c(Cl)c4)cc3C#N)CC2)cc1 [Example 3-8, 4-methoxybenzyl 4-{5-[3-chloro-4-(dimethylcarbamoyl)phenyl]-3-cyanopyridin-2-yl}piperazine-1-carboxylate]",65,210,65,24600,–
"CN(C)C(=O)c1ccc(-c2cnc(N3CCN(C(=O)OCc4ccccc4C(F)(F)F)CC3)c(C#N)c2)cc1Cl [Example 3-11, 2-(trifluoromethyl)benzyl 4-{5-[3-chloro-4-(dimethylcarbamoyl)phenyl]-3-cyanopyridin-2-yl}piperazine-1-carboxylate]",96,79,39,1200,–
"CN(C)C(=O)c1ccc(-c2cnc(N3CCN(C(=O)c4c(F)cccc4Cl)CC3)c(C#N)c2)cc1Cl [Example 2-21, 2-chloro-4-(6-{4-[(2-chloro-6-fluorophenyl)carbonyl]piperazin-1-yl}-5-cyanopyridin-3-yl)-N,N-dimethylbenzamide]",59,147,41,6290,–
"CN(C)C(=O)c1ccc(-c2cnc(N3CCN(C(=O)C(O)(C(F)(F)F)C(F)(F)F)CC3)c(C#N)c2)cc1Cl [Example 2-30, 2-chloro-4-(5-cyano-6-{4-[3,3,3-trifluoro-2-hydroxy-2-(trifluoromethyl)propanoyl]piperazin-1-yl}pyridin-3-yl)-N,N-dimethylbenzamide]",125,6,66,5290,–
"CN(C)C(=O)c1ccc(-c2ccc(N3CCN(S(=O)(=O)c4c(Cl)cccc4Cl)CC3)c(Cl)c2)cc1Cl [Example 4-8, 3,3′-dichloro-4′-{4-[(2,6-dichlorophenyl)sulfonyl]piperazin-1-yl}-N,N-dimethylbiphenyl-4-carboxamide]",101,2820,38,10500,–
"CN(C)C(=O)c1ccc(-c2ccc(N3CCN(C(=O)c4c(F)cccc4F)CC3)cc2)cc1Cl [Example 4-16, 3-chloro-4′-{4-[(2,6-difluorophenyl)carbonyl]piperazin-1-yl}-N,N-dimethylbiphenyl-4-carboxamide]",77,4160,19,–,No IP
"CN(C)C(=O)c1ccc(-c2ccc(N3CCN(S(=O)(=O)c4c(Cl)cccc4C(F)(F)F)CC3)cc2)cc1Cl [Example 4-14, 3-chloro-4′-(4-{[2-chloro-6-(trifluoromethyl)phenyl]sulfonyl}piperazin-1-yl)-N,N-dimethylbiphenyl-4-carboxamide]",88,549,25,9810,–

# Second part, the molecule after the results:
Emax [1] [%],EC50 [1] [nM],Emax [2] [%],"EC50 [2, 3] [nM]","LXR alpha IP (nM) [2, 3]",SMILES
113,30,33,2420,–,"CN(CCn1cncn1)C(=O)c1ccc(-c2cnc(N3CCN(C(=O)C(C)(C)c4ccccc4)CC3)c(C#N)c2)cc1Cl [Example 6-3, 2-chloro-4-{5-cyano-6-[4-(2-methyl-2-phenylpropanoyl)piperazin-1-yl]pyridin-3-yl}-N-methyl-N-[2-(1H-1,2,4-triazol-1-yl)ethyl]benzamide]"
91,170,58,14900,–,"CN(CC#N)C(=O)c1ccc(-c2cnc(N3CCN(C(=O)OC(C)(C)C)CC3)c(C#N)c2)cc1Cl [Example 5-8, tert-butyl 4-(5-{3-chloro-4-[(cyanomethyl) (methyl)carbamoyl]phenyl}-3-cyanopyridin-2-yl)piperazine-1-carboxylate]"
93,12,41,929,–,"CC(C)C(O)(C(=O)N1CCN(c2ncc(-c3cc(Cl)c(C(=O)N(C)C)c(Cl)c3)cc2C#N)CC1)C(F)(F)F (single isomer, unassigned) [Example 7-5, 2,6-dichloro-4-(5-cyano-6-{4-[2-hydroxy-3-methyl-2-(trifluoromethyl)butanoyl]piperazin-1-yl}pyridin-3-yl)-N,N-dimethylbenzamide]"
62,49,11,671,–,"CN(C)C(=O)c1c(Cl)cc(-c2cnc(N3CC4CCC3CN4C(=O)OC(C)(C)C)c(C#N)c2)cc1Cl (stereo not drawn) [Example 7-4, tert-butyl 5-(3-cyano-5-(3,5-dichloro-4-(dimethylcarbamoyl)phenyl)pyridin-2-yl)-2,5-diazabicyclo[2.2.2]octane-2-carboxylate]"
68,676,39,4630,–,"CN(C)C(=O)c1ccc(-c2cnc(N3CCN(C(=O)OC(C)(C)C)CC3)c(C#N)c2)cc1C1CC1 [Example 9-4, tert-butyl 4-{3-cyano-5-[3-cyclopropyl-4-(dimethylcarbamoyl)phenyl]pyridin-2-yl}piperazine-1-carboxylate]"
65,382,34,9700,–,"CN(Cc1cnn(C)c1)C(=O)c1ccc(-c2cnc(N3CCN(C(=O)OC(C)(C)C)CC3)c(C#N)c2)cc1Cl [Example 5-22, tert-butyl 4-[5-(3-chloro-4-{methyl[(1-methyl-1H-pyrazol-4-yl)methyl]carbamoyl}phenyl)-3-cyanopyridin-2-yl]piperazine-1-carboxylate]"
71,118,52,8460,–,"CN(CCn1cncn1)C(=O)c1ccc(-c2cnc(N3CCN(C(=O)OC(C)(C)C)CC3)c(C#N)c2)cc1Cl [Example 5-24, tert-butyl 4-[5-(3-chloro-4-{methyl[2-(1H-1,2,4-triazol-1-yl)ethyl]carbamoyl}phenyl)-3-cyanopyridin-2-yl]piperazine-1-carboxylate]"
71,274,48,14300,–,"CC(C)(C)OC(=O)N1CCN(c2ncc(-c3ccc(C(=O)N4CCCC4)c(Cl)c3)cc2C#N)CC1 [Example 5-9, tert-butyl 4-{5-[3-chloro-4-(pyrrolidin-1-ylcarbonyl)phenyl]-3-cyanopyridin-2-yl}piperazine-1-carboxylate]"
55,565,31,4070,–,"CC(C)(C)OC(=O)N1CCN(c2ncc(-c3ccc(C(=O)N(CCCO)C4CC4)c(Cl)c3)cc2C#N)CC1 [Example 5-20, tert-butyl 4-(5-{3-chloro-4-[cyclopropyl(3-hydroxypropyl)carbamoyl]phenyl}-3-cyanopyridin-2-yl)piperazine-1-carboxylate]"
70,301,40,8600,–,"CN(CC(O)CO)C(=O)c1ccc(-c2cnc(N3CCN(C(=O)OC(C)(C)C)CC3)c(C#N)c2)cc1Cl (stereo not drawn) [Example 5-18, tert-butyl 4-(5-{3-chloro-4-[(2,3-dihydroxypropyl) (methyl)carbamoyl]phenyl}-3-cyanopyridin-2-yl)piperazine-1-carboxylate]"
